Key:
[1] = Body weight of stomach cancer cell xenograft mice; settings: 41 days, compared with negative control, stated as no toxicity problem, FIG. 7
[2] = tested on: cancer stem cell-like colorectal cancer cells derived from patients with relapse and metastasis after radiation therapy, xenografted; test: Tumor volume and weight in colorectal cancer cell xenograft mouse; assay type: in vivo, BALB/c nude female mouse; settings: oral compound (27 mg/kg) and X-rays at 5 Gy
Procedure: (§1) After cancer stem cell-like colorectal cancer cells, which were derived from patients with relapse and metastasis after radiation therapy, were cultured in vitro, the cultured cells were injected subcutaneously into the upper left flank of a BALB/c nude female mouse to be 2.0×10^7 cells/mouse. […] The mice were anesthetized to measure a change in tumor volume daily using calipers for 40 days, and the result is shown in FIG. 9. The tumor volume was calculated by the above-described Equation 1. In addition, after 40 days, a tumor weight was measured, and the result is shown in FIG. 10, and for 41 days, the body weight of the mouse was measured, and the result is shown in FIG. 11.

[3] = tested on: cancer stem cell-like thyroid cancer cells derived from patients with relapse and metastasis after paclitaxel administration, xenografted; test: Tumor volume in thyroid cancer cell xenograft mouse; assay type: in vivo, BALB/c nude female mouse; settings: 60 days, FIG. 3
Procedure: After cancer stem cell-like thyroid cancer cells derived from patients with relapse and metastasis after paclitaxel administration were cultured in vitro, the cultured cells were injected subcutaneously into the upper left flank of a BALB/c nude female mouse to be 2.0×10^7 cells/mouse. […] The mice were anesthetized to measure a change in tumor volume daily using calipers for 60 days, and the result is shown in FIG. 3. The tumor volume was evaluated using the following Equation 1. Tumor volume=L×S^2/2 [Equation 1] • (however, L is the longest diameter, and S is the shortest diameter)

[4] = tested on: cancer stem cell-like stomach cancer cells derived from patients with relapse and metastasis after irinotecan administration, xenografted; test: Tumor volume and weight in stomach cancer cell xenograft mouse
[5] = tested on: cancer stem cell-like stomach cancer cells derived from patients with relapse and metastasis after irinotecan administration; test: Irinotecan activity enhancement in irinotecan-resistant stomach cancer cells (cell number); assay type: cell-based, human; settings: FIG. 4
Procedure: After cancer stem cell-like stomach cancer cells derived from patients with relapse and metastasis after irinotecan administration were treated with the compound of Preparation Example 1-1 only (170 nM); irinotecan only (8.9 μM); or a combination of irinotecan (4.5 μM) and the compound of Preparation Example 1-1 (75 nM), a change in cell number over treatment time was measured, and the result is shown in FIG. 4.

[6] = tested on: cancer stem cell-like colorectal cancer cells derived from patients with relapse and metastasis after radiation therapy; test: Radiation treatment activity enhancement in radiation-resistant colorectal cancer cells (cell number); assay type: cell-based, human; settings: compound (75 nM) and X-rays at 5 Gy; FIG. 8
Procedure: After cancer stem cell-like colorectal cancer cells derived from patients with relapse and metastasis after radiation therapy were treated with the compound of Preparation Example 1-1 (150 nM) only; Faxitron X-rays (Faxitron Bioptics, AZ, USA) at an intensity of 5 Gy (RT); or the compound of Preparation Example 1-1 (75 nM) and the X-rays at an intensity of 5 Gy, the change in number of cancer cells over treatment time was measured, and the result is shown in FIG. 8.

[7] = tested on: cancer stem cell-like thyroid cancer cells derived from patients with relapse and metastasis after paclitaxel administration; test: Paclitaxel activity enhancement in paclitaxel-resistant thyroid cancer cells (cell number, viability); assay type: cell-based, human
Procedure: After cancer stem cell-like thyroid cancer cells derived from patients with relapse and metastasis after paclitaxel administration (ATC) were treated with a compound of Preparation Example 1-1 (150 nM) only; paclitaxel (12 nM) only; or a combination of paclitaxel (5 nM) and a compound of Preparation Example 1-1 (70 nM), a change in number of cells over time was confirmed. In addition, a change in cell viability according to a treatment concentration of paclitaxel, the compound of Preparation Example 1-1, or the combination of paclitaxel and the compound of Preparation Example 1-1 is shown in FIG. 1. In addition, the change in cell viability according to the treatment concentration of paclitaxel, the compound of Preparation Example 1-1 and the combination thereof was measured, and the result is shown in FIG. 2.

[8] = Body weight of colorectal cancer cell xenograft mice; assay type: in vivo, BALB/c nude female mouse; settings: 41 days, compared with negative control, stated as no toxicity problem, FIG. 11
Procedure: as §1

[9] = tested on: SKOV3-TR (paclitaxel-resistant epithelial ovarian cancer cell line); test: Cell morphology and viability (ImageJ living cell count) in SKOV3-TR; assay type: cell-based; settings: paclitaxel 5 μM; morphological analysis
Procedure: (§2) To confirm the anticancer therapeutic activity enhancing effects of the compounds of Preparation Examples, the compounds or salts prepared in Preparation Examples 1-1 to 31 (hereinafter, the compounds of Preparation Examples) were used, and cellular experiments were carried out with an epithelial ovarian cancer cell line SKOV3 and SKOV3-TR derived therefrom and produced as a resistant cell line having resistance to a paclitaxel anticancer agent. […]
(§3) For the morphological analysis of the cells, 24, 48 and 72 hours after paclitaxel treatment, images of cells treated with “None (untreated sample)”, “DMSO (paclitaxel solvent)”, “ethanol (solvent for the compounds of Preparation Examples)”, “paclitaxel”, “paclitaxel+ethanol”, and “paclitaxel+the compound of Preparation Example 1-2 (L19001)” were obtained. In addition, for the analysis of cell viability, 72 hours after treatment with paclitaxel or the compound of each Preparation Example only, or co-treatment with paclitaxel and the compound of each Preparation Example, the number of living cells was measured through Image J analysis.
(§4) The cell viability of the two types of cancer cell lines was analyzed by measuring the number of living cells using the ImageJ program.

[10] = tested on: SKOV3 (epithelial ovarian cancer cell line); test: Cell morphology and viability (ImageJ living cell count) in SKOV3; assay type: cell-based; settings: paclitaxel 0.2 μM; morphological analysis
Procedure: as §2, §3, §4

In the case of CCc1oc2ccccc2c1CN1CCN2C(=O)CNC(=O)C2C1 (centres unmarked) [Preparation Example 1-1, 2-((2-ethylbenzofuran-3-yl)methyl)hexahydro-2H-pyrazino[1,2-a]pyrazine-6,9-dione], the “change in body weight of the mouse” value ([1]; oral compound (32 mg/kg) in combination with irinotecan (55 mg/kg)) is reported as “no change”, the “change in body weight of the mouse” value ([1]; oral compound (70 mg/kg) alone) is reported as “no change” and the tumor volume ([2]; 40 days, FIG. 9) is reported as “remarkably decreased”. For the same compound, the tumor weight ([2]; after 40 days, FIG. 10) was “remarkably decreased”, the tumor volume ([3]; oral compound (27 mg/kg) then intraperitoneal paclitaxel (11 mg/kg)) was “remarkably decreased” and the tumor volume ([4]; oral compound (32 mg/kg) and irinotecan (55 mg/kg), 40 days, FIG. 5) was “remarkably decreased”. For the same compound, the tumor weight ([4]; oral compound (32 mg/kg) and irinotecan (55 mg/kg), after 40 days, FIG. 6) was “remarkably decreased”, the “number of cancer cells” value ([5]; combination of irinotecan (4.5 μM) and compound (75 nM)) was “remarkably decreased” and the “number of cancer cells” value [6] was “remarkably decreased”. The “number of stem cell-like thyroid cancer cells” value ([7]; combination of paclitaxel (5 nM) and compound (70 nM), FIG. 1) was “remarkably decreased”, the “cell viability of stem cell-like thyroid cancer cells” value ([7]; combination of paclitaxel and compound, FIG. 2) was “remarkably decreased” and the “change in body weight of the mouse” value ([8]; oral compound (27 mg/kg) in combination with radiation therapy (5 Gy)) was “no change”. The “change in body weight of the mouse” value ([8]; oral compound (60 mg/kg) only) was “no change”.

In the case of CCc1c2c(nc3ccc(OC(=O)N4CCC(N5CCCCC5)CC4)cc13)-c1cc3c(c(=O)n1C2)COC(=O)[C@]3(O)CC [irinotecan, reference compound], the “change in tumor weight” value ([4]; oral irinotecan (75 mg/kg) only, after 40 days, compared with negative control, FIG. 6) is reported as “no change” and the “change in number of cancer cells” value ([5]; irinotecan only (8.9 μM), compared with negative control) is reported as “no change”.

In the case of CC(=O)O[C@H]1C(=O)[C@@]2(C)[C@H]([C@H](OC(=O)c3ccccc3)[C@]3(O)C[C@H](OC(=O)[C@H](O)[C@@H](NC(=O)c4ccccc4)c4ccccc4)C(C)=C1C3(C)C)[C@]1(OC(C)=O)CO[C@@H]1C[C@@H]2O [paclitaxel, reference compound], the “change in tumor volume” value ([3]; intraperitoneal paclitaxel (25 mg/kg) only, compared with negative control) is reported as “no change”, the “number of living cells (induction of cell death and inhibition of cell growth)” value [9] is reported as “decrease” and the “change in cancer cell number” value ([7]; paclitaxel (12 nM) only, compared with negative control, FIG. 1) is reported as “no change”. For the same compound, the “viability of cancer cells” value ([7]; paclitaxel only, compared with negative control, FIG. 2) was “no change” and the “number of living cells (induction of cell death and inhibition of cell growth)” value [10] was “decrease”.

— patent US12139491B2, “Diketopiperazine derivatives as calcium ATPase inhibitor for enhancing anticancer activity” (HOLOSMEDIC, priority 2018, dated 2024)
